Where a name gives a salt, the structure may show the parent alone.
Test system: children and adolescents with autistic spectrum disorders
Assay: Open-label trial of Memantine in children and adolescents with autistic spectrum disorders
Type: in vivo, human
Description: In support of the present invention, an experiment was conducted to evaluate the use of Memantine in children and adolescents with autistic spectrum disorders (hereinafter referred to as “ASD”). […] A range of 2.5-10 mg per day of Memantine was applied as an open-label trial in children with ASD. Clinical observations of global function in language and/or behavior pattern were assessed. Thirty patients, including 24 males and 6 females with an average age of 8.92 years and meeting DSM-IV criteria for ASD, were treated with Memantine for greater than 8 weeks. The patients were evaluated using a global clinical improvement scale rating for improvement in language and behaviors based on parental observation and clinical appearance. Improvements were rated as follows: moderate to significant, mild to moderate, or no improvement. The therapy ranged from between 8 to 40 weeks, with an average duration of therapy of 18 weeks and an average daily dosage of 8.1 mg. After the thirty patients were treated for more than 2 months with Memantine, parents reported improvements in 26 of the 30 patients in one or more categories: attention, motor planning, language function (both receptively and expressively), and self-stimulatory behaviors. Moderate to significant improvement occurred in 16 of the 26, with milder improvement in 10 of the 26.

[1] = open-label, 2.5-10 mg per day, treated more than 2 months, global clinical improvement scale

CC12CC3CC(C)(C1)CC(N)(C3)C2 [Memantine, 1-amino-3,5-dimethyladamantane hydrochloride]
frontal executive functions (attention, speech expression, perseveration) (open-label trial in ASD, overall clinical observation): appears to clearly improve frontal executive functions
side effects (open-label, 2.5-10 mg per day, 30 patients treated more than 2 months): No side effects were reported
patients with parent-reported improvements in one or more categories (attention, motor planning, language function, self-stimulatory behaviors) (open-label, 2.5-10 mg per day, average 8.1 mg daily, treated more than 2 months (8 to 40 weeks), global clinical improvement scale): 26 of the 30 patients
patients with milder improvement [1]: 10 of the 26
patients with moderate to significant improvement [1]: 16 of the 26
